Data: patent publication US10611778B2, “Fused bicyclic inhibitors of menin-MLL interaction” (Janssen Pharmaceutica NV, priority 2016, dated 2020)
Where two headings read alike, the source gives them in different places.

Columns and labels:
[1] = biological target: T1, Menin/MLL (menin, FITC-MBM1 peptide) (Homo sapiens, UniProt O00255, T541A); assay: Menin/MLL fluorescence polarization (FP) assay; format: binding
T1 construct: 6xHis (C)
T1 sequence (O00255 with tags, fused parts or gaps T541A): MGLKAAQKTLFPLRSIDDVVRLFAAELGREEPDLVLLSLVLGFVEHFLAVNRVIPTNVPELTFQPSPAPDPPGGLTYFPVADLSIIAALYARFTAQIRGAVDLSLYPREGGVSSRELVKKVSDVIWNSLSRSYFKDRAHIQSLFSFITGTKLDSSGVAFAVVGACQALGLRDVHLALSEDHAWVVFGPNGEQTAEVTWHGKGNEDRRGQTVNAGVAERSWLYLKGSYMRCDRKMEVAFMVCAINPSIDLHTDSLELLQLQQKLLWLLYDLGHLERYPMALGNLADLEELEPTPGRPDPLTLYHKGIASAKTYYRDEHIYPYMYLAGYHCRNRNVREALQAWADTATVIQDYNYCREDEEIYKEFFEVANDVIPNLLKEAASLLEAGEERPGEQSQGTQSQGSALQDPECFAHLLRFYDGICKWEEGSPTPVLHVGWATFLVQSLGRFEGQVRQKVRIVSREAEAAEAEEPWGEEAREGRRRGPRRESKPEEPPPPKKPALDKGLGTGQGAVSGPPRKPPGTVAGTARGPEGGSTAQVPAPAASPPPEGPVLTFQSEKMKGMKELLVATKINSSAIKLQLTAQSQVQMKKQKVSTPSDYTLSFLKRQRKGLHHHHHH
How it was run: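 Compound pre-incubated 10 min with 100 nM menin (40 mM Tris-HCl pH 7.5, 50 mM NaCl, 1 mM DTT, 0.001% Tween 20), then 5 nM FITC-MBM1 peptide added for 15 min at ambient temperature; 0.625% DMSO final. FP read at ex 485/em 520 nm. IC50 from 11-point three-fold dilutions from 31 μM, % inhibition vs saturating-competitor controls.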

K562 = assay: Proliferation assay (spheroid assay) K562 control cell line; format: cell-based; details: Homo sapiens
Procedure: The anti-proliferative effect of menin/MLL protein/protein interaction inhibitor test compounds was assessed in human leukemia cell lines. The cell lines MV-4-11 and MOLM14 harbor MLL translocations and express the MLL fusion proteins MLL-AF4 and MLL-AF9, respectively, as well as the wildtype protein from the second allele. […] K562 and KG1 were used as a control cell lines containing two MLL wildtype alleles in order to exclude compounds that display general cytotoxic effects.
MV-4-11 and MOLM14 were cultured in RPMI-1640 (Sigma Aldrich) supplemented with 10% fetal bovine serum (HyClone), 2 mM L-glutamine (Sigma Aldrich) and 50 μg/ml gentamycin (Gibco). K562 were propagated in RPMI-1640 (Sigma Aldrich) supplemented with 20% fetal bovine serum (HyClone), 2 mM L-glutamine (Sigma Aldrich) and 50 μg/ml gentamycin (Gibco). KG1 were cultured in Iscove's MDM (Gibco) supplemented with 20% fetal bovine serum (HyClone), 2 mM L-glutamine (Sigma Aldrich) and 50 μg/ml gentamycin (Gibco).
In order to assess the anti-proliferative effects, 1,500 MV-4-11, 300 MOLM14, 750 K562 or 1,300 KG1 cells were seeded in 200 μl media per well in 96-well round bottom, ultra-low attachment plates (Costar, catalogue number 7007). Cell seeding numbers were chosen based on growth curves to ensure linear growth throughout the experiment. Test compounds were added at different concentrations and the DMSO content was normalized to 0.3%. Cells were incubated for 8 d at 37° C. and 5% CO2. Spheroid like growth was monitored in real-time by live-cell imaging (IncuCyteZOOM, Essenbio, 4× objective) acquiring one image every four hours for 8 d. Confluence (%) as a measure of spheroid size was determined using an integrated analysis tool.
In order to determine the cumulative effect of the test compounds over time, the area under the curve (AUC) in a plot of confluence against time was calculated. Confluence at the beginning of the experiment (t=0) was used as baseline for the AUC calculation.
Absolute IC50 values were calculated according to the following procedure: % Control=(AUC sample/AUC control)*100
AUC control=mean AUC of control values (cells without compound/DMSO as vehicle control)
A non-linear curve fit was applied using the least squares (ordinary) fit method to the plot of % control versus compound concentration. Based on this, the absolute IC50 value (half maximal inhibitory concentration of the test compound causing an anti-proliferative effect of 50% relative to the vehicle control) was calculated.

[2] = averaged values over all measurements, read-out: Menin FP assay (IC50)
[3] = K562 control cell line, averaged values over all measurements, read-out: Spheroid assay K562 (IC50)

FC(F)(F)Cc1cc2c(N3CCC4C(CCN4Cc4ccccc4)C3)ncnc2s1 (centres unmarked) [Compound 1]
IC50 [1, 2]: 0.033 µM
IC50 (K562; [3]): 13.1 µM

FC(F)(F)Cc1cc2c(N3CC[C@H]4[C@H](CCN4Cc4ccc[nH]4)C3)ncnc2s1 (single isomer, unassigned) [Compound 8]
IC50 ([1]; individual measurements (not averaged), read-out: (1) Menin FP assay (IC50 (μM))): 0.101 µM
IC50 (K562; 192 h, K562, 8 d, individual measurements (not averaged), read-out: (2) Spheroid assay K562 (IC50 (μM))): > 15 µM

FC(F)(F)Cc1cc2c(N3CCC4C3CCN4Cc3ccccc3)ncnc2s1 (centres unmarked) [Compound 2]
IC50 [1, 2]: 0.34 µM
IC50 (K562; [3]): > 15 µM

Fc1ccccc1CN1CC[C@H]2CN(c3ncnc4sc(CC(F)(F)F)cc34)CC[C@H]21 (single isomer, unassigned) [Compound 6]
IC50 [1, 2]: 0.21 µM
IC50 (K562; [3]): 9 µM
